Laboratory results reported in patent US11498896B2 (The Broad Institute, Inc., priority 2014, dated 2022).

Columns and labels:
[1] = target: T1, human D2R/β-arrestin (Homo sapiens (Human), UniProt P14416); assay: β-arrestin agonist assay (PathHunter); type: cell-based; settings: CHO-K1 cells expressing human D2R/β-arrestin; agonist mode
Procedure: The detection reagent (9.6 μL, Buffer:Emerald II:Galactor-Star in a 19:5:1 ratio, i.e., 14.06 mL:3.7 mL:0.74 mL=18.5 mL) was then added to the agonist plates.

[2] = target: T1, human D2R/β-arrestin; assay: Gi/cAMP agonist assay (Lance Ultra cAMP, forskolin); type: cell-based; settings: CHO-K1 cells expressing human D2R/β-arrestin; agonist mode, 2.5 μM forskolin
Procedure: Eu-cAMP tracer solution (10 μl, PerkinElmer, 360 μl of Tracer in 17.64 ml kit buffer) and ULight-anti-cAMP solution (10 μl, 120 μL antibody in 17.88 ml kit buffer) was then added to each well.

[3] = target: T1, human D2R/β-arrestin; assay: cell-based; settings: β-arrestin Antagonist
[4] = target: T1, human D2R/β-arrestin; assay: cell-based; settings: cAMP Antagonist
Procedure: Cells were prepared for assays by growing cultures for up to 2 weeks (from about 6-20 passages). A vial of frozen cells was thawed in a water bath held at 37° C. The cells were then transferred into a 50 ml tube with 10 ml growth media. The vial was rinsed with growth media and the contents transferred to the 50 ml tube. The 50 ml tube was centrifuged at 1200 rpm for 5 minutes at room temperature. […] When the cells reached about 90% confluence (approximately 3 days between passages), the cells were passaged and used for either the agonist or antagonist assays as described below.
The cells were prepared for Gi/cAMP assays as described above. The assays were performed using a PE Lance Ultra cAMP kit (TRF0263). The cells were grown on 225 mm dishes, then washed once with 1×PBS (Cellgro) before digestion with 2.5 ml 1× Detachment reagent (DRX 92-0009) for about 2 minutes. PBS (20 ml) was then added to the plate, and the cells were transferred to a 50 ml centrifuge tube, and centrifuged at room temperature using BD Dynac III, at 1200 rpm for 5 minutes. […] The plates were then incubated at room temperature for about 30 minutes before addition of Eu-cAMP tracer solution (10 μl, PerkinElmer) and then ULight-anti-cAMP solution (10 μl) to each well.

[5] = CHO-K1 cells expressing human D2R/β-arrestin, antagonist mode, quinpirole 130 nM
[6] = CHO-K1 cells expressing human D2R/β-arrestin, antagonist mode, 2.5 μM forskolin and 2.7 nM quinpirole

T1 sequence (P14416 whole entry): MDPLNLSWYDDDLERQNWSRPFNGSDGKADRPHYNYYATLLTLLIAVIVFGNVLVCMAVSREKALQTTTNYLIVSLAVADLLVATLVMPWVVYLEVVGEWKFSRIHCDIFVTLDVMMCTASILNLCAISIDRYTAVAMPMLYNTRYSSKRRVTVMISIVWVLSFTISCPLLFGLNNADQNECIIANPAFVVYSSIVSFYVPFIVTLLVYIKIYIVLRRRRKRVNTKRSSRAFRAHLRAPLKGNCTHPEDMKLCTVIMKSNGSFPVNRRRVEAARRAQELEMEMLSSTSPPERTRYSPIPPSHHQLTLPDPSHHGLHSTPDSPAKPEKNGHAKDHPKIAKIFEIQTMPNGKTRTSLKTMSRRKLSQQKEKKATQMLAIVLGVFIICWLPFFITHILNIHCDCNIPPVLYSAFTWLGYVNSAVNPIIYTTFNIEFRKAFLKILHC

| SMILES | EC50 [1] | EC50 [2] | IC50 [3, 5] | IC50 [4, 6] | IC50 [3] | IC50 [4] |
| --- | --- | --- | --- | --- | --- | --- |
| CC1(NC(=O)C(F)(F)F)CCN(C[C@H]2COc3ccccc3O2)CC1 [Compound 212, (S)—N-(1-((2,3-dihydrobenzo[b][1,4]dioxin-2-yl)methyl)-4-methylpiperidin-4-yl)-2,2,2-trifluoroacetamide] | 1 to 10 µM | < 0.1 µM | 0.1 to 1 µM | > 30 µM |  |  |
| CC(=O)N(C)C1(C)CCN(C[C@H]2COc3ccccc3O2)CC1 [Compound 213, (S)—N-(1-((2,3-dihydrobenzo[b][1,4]dioxin-2-yl)methyl)-4-methylpiperidin-4-yl)-N-methylacetamide] | > 30 µM | 1 to 10 µM | > 30 µM | > 30 µM |  |  |
| OCC1(Cc2ccc(Cl)cc2)CCN(CCOc2ccccc2C(F)(F)F)CC1 [Compound 214, (4-(4-chlorobenzyl)-1-(2-(2-(trifluoromethyl)phenoxy)ethyl)piperidin-4-yl)methanol] | > 30 µM | 1 to 10 µM | 1 to 10 µM | 1 to 10 µM |  |  |
| CC1(Cc2ccc(Cl)cc2)CCN(CCOc2ccccc2C(F)(F)F)CC1 [Compound 215, 4-(4-chlorobenzyl)-4-methyl-1-(2-(2-(trifluoromethyl)phenoxy)ethyl)piperidine] | 1 to 10 µM | 1 to 10 µM | 1 to 10 µM | 10 to 30 µM |  |  |
| FC(F)(F)c1ccccc1OCCN1CCC2(CC1)CC2c1ccc(Cl)cc1 (stereo not drawn) [Compound 216, 1-(4-chlorophenyl)-6-(2-(2-(trifluoromethyl)phenoxy)ethyl)-6-azaspiro[2.5]octane] | > 30 µM | > 30 µM | 10 to 30 µM | > 30 µM |  |  |
| CN(C1CCCCC1)C1(C)CCN(CCOc2ccccc2C(F)(F)F)CC1 [Compound 217, N-cyclohexyl-N,4-dimethyl-1-(2-(2-(trifluoromethyl)phenoxy)ethyl)piperidin-4-amine] | > 30 µM | 0.1 to 1 µM |  |  | 1 to 10 µM | 1 to 10 µM |
| CC1(C(=O)Nc2ccccc2)CCN(CCOc2ccccc2C(F)(F)F)CC1 [Compound 219, 4-methyl-N-phenyl-1-(2-(2-(trifluoromethyl)phenoxy)ethyl)piperidine-4-carboxamide] | > 30 µM | > 30 µM | 0.1 to 1 µM | 0.1 to 1 µM |  |  |
| CC1(C(=O)Nc2ccccc2)CCN(CCOc2ccccc2F)CC1 [Compound 220, 1-(2-(2-fluorophenoxy)ethyl)-4-methyl-N-phenylpiperidine-4-carboxamide] | > 30 µM | 0.1 to 1 µM | 0.1 to 1 µM | 0.1 to 1 µM |  |  |
| OC1(Cc2ccccc2F)CCN(CCOc2ccccc2)C1 (stereo not drawn) [Compound 300, 3-(2-fluorobenzyl)-1-(2-phenoxyethyl)pyrrolidin-3-ol, reference compound] | > 30 µM | 0.1 to 1 µM | 10 to 30 µM | > 30 µM |  |  |
| COc1ccccc1OCCN1CCC(C)(O)CC1 [Compound 301, reference compound] | > 30 µM | > 30 µM | 1 to 10 µM | 0.1 to 1 µM |  |  |
| C#CC1(O)CCN(CCOc2ccccc2C(F)(F)F)CC1 [Compound 302, 4-ethynyl-1-(2-(2-(trifluoromethyl)phenoxy)ethyl)piperidin-4-ol, reference compound] | > 30 µM | > 30 µM | < 0.1 µM | < 0.1 µM |  |  |
| CC1(N)CCN(C[C@H]2COc3ccccc3O2)CC1 [Compound 303, reference compound] | > 30 µM | 0.1 to 1 µM | 10 to 30 µM | > 30 µM |  |  |
| CC1(Oc2cccc([N+](=O)[O-])c2)CCN(CCOc2ccccc2)C1 (stereo not drawn) [Example 40, 3-Methyl-3-(3-nitrophenoxy)-1-(2-phenoxyethyl)pyrrolidine] | > 30 µM | 0.1 to 1 µM | 1 to 10 µM | > 30 µM |  |  |
| CC1(Oc2cccc(N)c2)CCN(CCOc2ccccc2)C1 (stereo not drawn) [Example 41, 3-((3-methyl-1-(2-phenoxyethyl)pyrrolidin-3-yl)oxy)aniline] | > 30 µM | 0.1 to 1 µM | 10 to 30 µM | > 30 µM |  |  |
| CC1(Oc2cccc(Cl)c2)CCN(CCOc2ccccc2)C1 (stereo not drawn) [Example 42, 3-(3-chlorophenoxy)-3-methyl-1-(2-phenoxyethyl)pyrrolidine] | > 30 µM | < 0.1 µM | 1 to 10 µM | > 30 µM |  |  |
| CC1(Oc2ccc([N+](=O)[O-])cc2)CCN(CCOc2ccccc2)C1 (stereo not drawn) [Example 43, 3-Methyl-3-(4-nitrophenoxy)-1-(2-phenoxyethyl)pyrrolidine] | > 30 µM | > 30 µM | 1 to 10 µM | > 30 µM |  |  |
| CC1(Oc2ccc(N)cc2)CCN(CCOc2ccccc2)C1 (stereo not drawn) [Example 44, 4-((3-methyl-1-(2-phenoxyethyl)pyrrolidin-3-yl)oxy)aniline] | 0.1 to 1 µM | < 0.1 µM | > 30 µM | > 30 µM |  |  |

| SMILES | EC50 [1] | EC50 [2] | IC50 [3, 5] | IC50 [4, 6] | IC50 [3] | IC50 [4] |
| --- | --- | --- | --- | --- | --- | --- |
| CC1(Oc2ccccc2[N+](=O)[O-])CCN(CCOc2ccccc2)C1 (stereo not drawn) [Example 45, 3-methyl-3-(2-nitrophenoxy)-1-(2-phenoxyethyl)pyrrolidine] | > 30 µM | < 0.1 µM | 1 to 10 µM | > 30 µM |  |  |
| CC1(Oc2ccccc2Cl)CCN(CCOc2ccccc2)C1 (stereo not drawn) [Example 47, 3-(2-chlorophenoxy)-3-methyl-1-(2-phenoxyethyl)pyrrolidine] | > 30 µM | 0.1 to 1 µM | 1 to 10 µM | > 30 µM |  |  |
| CC1(Oc2ccc(Cl)cc2Cl)CCN(CCOc2ccccc2)C1 (stereo not drawn) [Example 48, 3-(2,4-dichlorophenoxy)-3-methyl-1-(2-phenoxyethyl)pyrrolidine] | > 30 µM | < 0.1 µM | 10 to 30 µM | > 30 µM |  |  |
| CC1(Oc2cccc(Cl)c2Cl)CCN(CCOc2ccccc2)C1 (stereo not drawn) [Example 49, 3-(2,3-dichlorophenoxy)-3-methyl-1-(2-phenoxyethyl)pyrrolidine] | > 30 µM | 0.1 to 1 µM | 10 to 30 µM | > 30 µM |  |  |
| CC1(Oc2ccc(F)cc2)CCN(CCOc2ccccc2)C1 (stereo not drawn) [Example 51, 3-(4-fluorophenoxy)-3-methyl-1-(2-phenoxyethyl)pyrrolidine] | > 30 µM | < 0.1 µM | 0.1 to 1 µM | > 30 µM |  |  |
| CC1(Oc2cccc(F)c2)CCN(CCOc2ccccc2)C1 (stereo not drawn) [Example 52, 3-(3-fluorophenoxy)-3-methyl-1-(2-phenoxyethyl)pyrrolidine] | > 30 µM | < 0.1 µM | 1 to 10 µM | > 30 µM |  |  |
| CC1(Oc2ccccc2C(F)(F)F)CCN(CCOc2ccccc2)C1 (stereo not drawn) [Example 56, 3-Methyl-1-(2-phenoxyethyl)-3-(2-(trifluoromethyl)phenoxy) pyrrolidine] | > 30 µM | < 0.1 µM | 1 to 10 µM | 1 to 10 µM |  |  |
| CC1(Oc2ccccn2)CCN(CCOc2ccccc2)C1 (stereo not drawn) [Example 57, 2-((3-methyl-1-(2-phenoxyethyl)pyrrolidin-3-yl)oxy)pyridine] | > 30 µM | 0.1 to 1 µM | 1 to 10 µM | > 30 µM |  |  |
| CC1(Oc2cccnc2)CCN(CCOc2ccccc2)C1 (stereo not drawn) [Example 58, 3-((3-methyl-1-(2-phenoxyethyl)pyrrolidin-3-yl)oxy)pyridine] | 1 to 10 µM | < 0.1 µM | > 30 µM | > 30 µM |  |  |
| CC1(Oc2cnccn2)CCN(CCOc2ccccc2)C1 (stereo not drawn) [Example 60, 2-((3-methyl-1-(2-phenoxyethyl)pyrrolidin-3-yl)oxy)pyrazine] | 0.1 to 1 µM | < 0.1 µM | > 30 µM | > 30 µM |  |  |
| CC1(Oc2cccc(C(F)(F)F)c2)CCCN(CCOc2ccccc2F)C1 (stereo not drawn) [Example 61, 1-(2-(2-Fluorophenoxy)ethyl)-3-methyl-3-(3-(trifluoromethyl)phenoxy) piperidine] | > 30 µM | > 30 µM | 1 to 10 µM | 0.1 to 1 µM |  |  |
| CC1(Oc2cccc(C(F)(F)F)c2)CCCN(CCOc2cc(F)ccc2F)C1 (stereo not drawn) [Example 62, 1-(2-(2,5-Difluorophenoxy)ethyl)-3-methyl-3-(3-(trifluoromethyl)phenoxy)piperidine] | > 30 µM | > 30 µM | 1 to 10 µM | 1 to 10 µM |  |  |
| CC1(Oc2cccc(C(F)(F)F)c2)CCCN(CCOc2ccccc2Cl)C1 (stereo not drawn) [Example 63, 1-(2-(2-Chlorophenoxy)ethyl)-3-methyl-3-(3-(trifluoromethyl)phenoxy) piperidine] | > 30 µM | > 30 µM | 1 to 10 µM | 1 to 10 µM |  |  |
| CC1(Oc2cccc(C(F)(F)F)c2)CCN(CCOc2ccccc2F)C1 (stereo not drawn) [Example 64, 1-(2-(2-fluorophenoxy)ethyl)-3-methyl-3-(3-(trifluoromethyl)phenoxy) pyrrolidine] | > 30 µM | 0.1 to 1 µM | 10 to 30 µM | > 30 µM |  |  |
| CC1(Oc2cccc(C(F)(F)F)c2)CCN(CCOc2ccccc2Cl)C1 (stereo not drawn) [Example 65, 1-(2-(2-Chlorophenoxy)ethyl)-3-methyl-3-(3-(trifluoromethyl)phenoxy) pyrrolidine] | > 30 µM | > 30 µM | 1 to 10 µM | 0.1 to 1 µM |  |  |
| CC1(Oc2cccc(C(F)(F)F)c2)CCN(CCOc2cc(F)ccc2F)C1 (stereo not drawn) [Example 66, 1-(2-(2,5-difluorophenoxy)ethyl)-3-methyl-3-(3-(trifluoromethyl)phenoxy)pyrrolidine] | > 30 µM | < 0.1 µM | 1 to 10 µM | 10 to 30 µM |  |  |
